Source: US4906661A, “Esters of aryloxypropanolamine derivatives” (E. I. Du Pont de Nemours and Company, priority 1989, dated 1990)
“And” between values parts separate entries of the source, which are not always exact repeats. Identical values can stand only once. Counter-ions that a name gives are not always drawn. Like-named read-outs stand apart in the source and are kept apart here.

Experiments:
[1] = biological target: β1 receptors, guinea pig right atria (Cavia porcellus, UniProt H0W3H1); test: cell-based
Chain of β1 receptors, guinea pig right atria (H0W3H1 1-470): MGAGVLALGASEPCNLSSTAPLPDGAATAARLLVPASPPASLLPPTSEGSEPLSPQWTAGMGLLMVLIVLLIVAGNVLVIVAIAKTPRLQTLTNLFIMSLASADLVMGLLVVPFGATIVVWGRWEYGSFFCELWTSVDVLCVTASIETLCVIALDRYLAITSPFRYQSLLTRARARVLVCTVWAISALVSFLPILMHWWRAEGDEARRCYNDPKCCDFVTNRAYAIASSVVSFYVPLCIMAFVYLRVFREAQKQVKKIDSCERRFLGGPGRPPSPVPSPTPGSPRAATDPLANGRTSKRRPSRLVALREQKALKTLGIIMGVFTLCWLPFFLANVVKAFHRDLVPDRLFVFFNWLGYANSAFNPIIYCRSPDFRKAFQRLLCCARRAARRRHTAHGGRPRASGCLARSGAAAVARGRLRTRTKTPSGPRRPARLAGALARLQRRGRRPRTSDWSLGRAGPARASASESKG
Description: Each tissue was suspended between a fixed glass rod and a Statham Universal Transducer connected to a Beckman recorder. Atria were allowed to beat spontaneously under a loading tension of approximately 0.5 gm. Intrinsic depressant or stimulant activity was determined for each compound by progressively increasing concentrations in the tissue baths at 60-minute intervals. Tissues were not washed between increments. The maximum concentration showing little or no cardiodepressant activity was chosen for blockade experiments. Changes in rate in response to isoproterenol, a standard β-receptor agonist, were measured in the absence and presence of test compounds. Spiral strips of guinea pig trachea were suspended under 5 gm resting tension and incubated with phentolamine, tropolone and cocaine. Active tension was generated by addition of carbachol (3.0×10^-7 M) and decreases in tension in response to isoproterenol were quantitated. Cumulative concentration-response curves were produced with isoproterenol both before and after 60-minute incubation of test compounds with atria and trachea. […] The blocking potency of test compounds was estimated by computing pA2 values (-log KB) by the method of Furchgott, the Pharmacological Differentiation of Adrenergic Receptors, Ann. […] The degree of cardioselectivity was estimated from the ratio, KB trachea/KB atria (10^(pA2 atria-pA2 trachea)). A ratio greater than one indicates cardioselectivity. Test drugs were dissolved in distilled water and added to the bath (30 ml) in a volume of 10 or 100 μl.

[2] = biological target: β2 receptors, guinea pig trachea (Cavia porcellus, UniProt Q8K4Z4); test: cell-based
Chain of β2 receptors, guinea pig trachea (Q8K4Z4 whole entry): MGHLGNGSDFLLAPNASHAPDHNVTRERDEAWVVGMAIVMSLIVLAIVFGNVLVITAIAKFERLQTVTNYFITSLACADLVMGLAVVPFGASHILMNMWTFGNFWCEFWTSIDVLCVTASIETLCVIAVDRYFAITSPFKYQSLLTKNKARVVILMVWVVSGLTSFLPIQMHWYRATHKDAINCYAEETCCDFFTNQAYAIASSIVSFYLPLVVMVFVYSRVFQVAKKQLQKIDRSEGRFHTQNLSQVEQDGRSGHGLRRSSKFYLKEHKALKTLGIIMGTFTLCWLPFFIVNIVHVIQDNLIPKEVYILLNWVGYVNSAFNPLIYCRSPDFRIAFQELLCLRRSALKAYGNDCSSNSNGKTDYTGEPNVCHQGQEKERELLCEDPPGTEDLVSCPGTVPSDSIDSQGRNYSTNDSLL
Description: Each tissue was suspended between a fixed glass rod and a Statham Universal Transducer connected to a Beckman recorder. Atria were allowed to beat spontaneously under a loading tension of approximately 0.5 gm. Intrinsic depressant or stimulant activity was determined for each compound by progressively increasing concentrations in the tissue baths at 60-minute intervals. Tissues were not washed between increments. […] Changes in rate in response to isoproterenol, a standard β-receptor agonist, were measured in the absence and presence of test compounds. Spiral strips of guinea pig trachea were suspended under 5 gm resting tension and incubated with phentolamine, tropolone and cocaine. Active tension was generated by addition of carbachol (3.0×10^-7 M) and decreases in tension in response to isoproterenol were quantitated. Cumulative concentration-response curves were produced with isoproterenol both before and after 60-minute incubation of test compounds with atria and trachea. […] The blocking potency of test compounds was estimated by computing pA2 values (-log KB) by the method of Furchgott, the Pharmacological Differentiation of Adrenergic Receptors, Ann. […] A ratio greater than one indicates cardioselectivity. Test drugs were dissolved in distilled water and added to the bath (30 ml) in a volume of 10 or 100 μl.

[3] = tested on: heart rate response to isoproterenol; test: Duration and potency of beta-blocking action in vivo, 3-hour infusion in anesthetized dogs, isoproterenol challenge; parameters: species or system dog; conditions: for Duration, time for 50% recovery from 50% blockade levels: Table IV, after infusion of drug, mean ± SEM; for Recovery Time 50%: 50% recovery from β-blockade after termination of infusion; for Recovery Time 80%: 80% recovery from β-blockade after termination of infusion; for % I, percent inhibition of heart rate response to isoproterenol: end of 3-hour infusion, isoproterenol 0.5 μg/kg
Description: The duration of β-blockade was determined In vivo using pentobarbital-anesthetized dogs instrumented for measurement of heart rate using a Beckman cardiotachometer triggered electronically by a phasic aortic blood pressure signal. Both vagus nerves were served in the cervical region and the animals were mechanically ventilated. The experimental design used employed a 3-hour infusion of test compound. Bolus doses of isoproterenol (0.5 μg/kg) were used to assess the degree of β-blockade and recovery from β-blockade after […] of the infusion. The doses were spaced at 10-minute intervals and were given before, during and following the infusion of test compounds. The infusion rate was adjusted so that at the end of the 3-hour infusion period the degree of isoproterenol inhibition averaged about 50% of control. Following termination of blocker infusion, percent recovery from β-blockade was computed and the time associated with 80% recovery estimated.
^c Time in minutes for 50% recovery from 50% blockade levels after 3
Infusions of drug. Number of experiments is equal to or greater than thre
for each compound unless noted otherwise. Tabulated data are mean values
^c The betablocking activities were evaluated Invivo in a canine
model. The betablocker was infused in the animal for 3 hours with the dos
adjusted to give approximately 50%. blockage of the Isoproternolinduced
tachycardia. The infusion was then terminated and the time required for
80% recovery of blockade was recorded as duration of action of the
compound. The amount of drug infused during the 3 hours was averaged and
expressed as potency in ug/kg/min.

[4] = Table VI, read-out: pA2 Atria (converted)
[5] = Table IV, mean, n ≥ 2, range ≤ ± 0.2 units
[6] = Table IV, mean, n ≥ 2, range ≤ ± 0.2 units, read-out: pA2 Atria (converted)
[7] = Table IV, mean, n ≥ 2, range ≤ ± 0.2 units, read-out: pA2 Trachea (converted)
[8] = Table V, guinea pig right atria (B1), read-out: In Vitro pA2 Atria (converted)

Compound `CCOC(=O)CCc1nsnc1OCC(O)CNC(C)(C)CNC(N)=O` (stereo not shown) [No. 2 (Table VI)] has a Kb [1, 4] of 39.8 nM.
With `CCOC(=O)CCc1ccc(OCC(O)CNC(C)(C)CNS(=O)(=O)N(C)C)cc1` (stereo not shown) [No. 15 (Table IV)] the “pA2 Atria” value [1, 5] was 5.8, the Kb [1, 6] was 1580 nM and the “pA2 Trachea” value [2, 5] was 6.5. For the same compound, the Kb [2, 7] was 316 nM.
In the case of `CCOC(=O)c1ccccc1OCC(O)CNCCNS(=O)(=O)N(C)C` (stereo not shown) [Example 4], the Kb [1, 6] is reported as 39.8 nM and the Kb [2, 7] is reported as 20 nM.
Compound `CCOC(=O)CCc1nsnc1OCC(O)CNC(C)(C)CNC(C)=O` (stereo not shown) [No. 5 (Table VI)] has a Kb [1, 4] of 79.4 nM.
`CCOC(=O)CCc1nsnc1OCC(O)CNC(C)CNC(C)=O` (stereo not shown) [No. 4 (Table VI)] gave a Kb [1, 4] of 100 nM.
`CCOC(=O)CCc1ccc(OCC(O)CNC(C)(C)CNC(=O)N2CCOCC2)cc1` (stereo not shown) [No. 19 (Table IV)] was tested, and the Kb [1, 6] was 15.8 nM, the Kb [2, 7] was 200 nM and the “Duration, time for 50% recovery from 50% blockade levels” value (“Duration, time for 50% recovery” below) [3] was 21 ± 4 min.
`CC(C)(C)NC[C@H](O)COc1nsnc1N1CCOCC1` [Timolol, reference compound] was tested, and the “Duration, time for 50% recovery” value [3] was > 60 min.
In the case of `CCOC(=O)NCC(C)(C)NCC(O)COc1ccccc1C(=O)OCC` (stereo not shown) [Example 2], the Kb [1, 6] is reported as 5.01 nM and the Kb [2, 7] is reported as 10 nM.
`CCOC(=O)CCc1ccc(OCC(O)CNC(C)(C)CNC(=O)C2CCCCC2)cc1` (stereo not shown) [No. 11 (Table IV)] gave a Kb [2, 7] of 398 nM.
In the case of `CCOC(=O)CCc1nsnc1OCC(O)CNC(C)(C)CNC(=O)C(C)C` (stereo not shown) [No. 2 (Table V)], the Kb [1, 8] is reported as 6.31 nM.
With `COC(=O)c1ccccc1OCC(O)CNC(C)(C)CNC(=O)N1CCOCC1` (stereo not shown) [Example VI, Methyl 2-[2-Hydroxy-3-[N-[1,1-dimethyl-2-(1-morpholinocarbonylamino)ethyl]amino]propoxy]benzoate Oxalate] the Kb ([1]; Table I, guinea pig right atria, vs isoproterenol, -log KB, read-out: PA2 Rt. Atria (converted)) was < 1 nM, the “Recovery Time 50%” value ([3]; Table II) was > 60 min and the “Recovery Time 80%” value ([3]; Table II) was > 60 min. For the same compound, the “% I, percent inhibition of heart rate response to isoproterenol” value (“% I, percent inhibition” for short) ([3]; Table II) was 93% and 89%.
`CCOC(=O)CCc1ccc(OCC(O)CNCCNS(=O)(=O)c2ccc(C)cc2)cc1` (stereo not shown) [No. 17 (Table IV)] showed a Kb [1, 6] of 1000 nM and a Kb [2, 7] of 6310 nM.
With `CCOC(=O)CCc1nsnc1OCC(O)CNCCNS(=O)(=O)N1CCOCC1` (stereo not shown) [No. 7 (Table VI)] the Kb [1, 4] was 794 nM.
For `CCOC(=O)CCc1nsnc1OCC(O)CNCCNC(=O)Cc1ccccc1` (stereo not shown) [No. 6 (Table VI)], the Kb [1, 4] was 79.4 nM.
With `CCOC(=O)CCc1nsnc1OCC(O)CNC(C)(C)CNC(=O)OCC` (stereo not shown) [No. 1 (Table VI)] the Kb [1, 4] was 63.1 nM.
`CCOC(=O)CCc1ccccc1OCC(O)CNCCNC(=O)C(C)C` (stereo not shown) [Example 6] showed a Kb [1, 6] of 63.1 nM and a Kb [2, 7] of 20 nM.
In the case of `CCOC(=O)CCc1ccc(OCC(O)CNCCNS(=O)(=O)N(C)C)cc1` (stereo not shown) [No. 16 (Table IV)], the “pA2 Atria” value [1, 5] is reported as 5.8 and the “pA2 Trachea” value [2, 5] is reported as 5.7.
With `CC(C)NCC(O)COc1cccc2ccccc12` (stereo not shown) [Propranolol, reference compound] the Potency ([3]; Table II, 3-hour infusion, dog) was 0.225 mg/kg/180 min, the “Recovery Time 50%” value ([3]; Table II) was > 60 min and the “Recovery Time 80%” value ([3]; Table II) was > 60 min. For the same compound, the “% I, percent inhibition” value ([3]; Table II) was 67 ± 6% and the “Duration, time for 50% recovery” value [3] was > 60 min.
`CCOC(=O)CCc1nsnc1OCC(O)CNCCNC(C)=O` (stereo not shown) [No. 3 (Table VI)] gave a Kb [1, 4] of 501 nM.
For `CCOC(=O)CCc1nsnc1OCC(O)CNCCNC(=O)C(C)C` (stereo not shown) [No. 1 (Table V)], the Kb [1, 8] was 100 nM.
`CCOC(=O)CCc1ccc(OCC(O)CNC(C)(C)CNC(=O)OCC)cc1` (stereo not shown) [No. 14 (Table IV)] gave a Kb [1, 6] of 794 nM and a Kb [2, 7] of 200 nM.
For `CCOC(=O)c1ccccc1OCC(O)CNCCNC(=O)C(C)C` (stereo not shown) [Example 1], the Kb [1, 6] was 3.16 nM and the Kb [2, 7] was 20 nM.
`COC(=O)c1ccccc1OCC(O)CNC(C)(C)CNS(=O)(=O)c1ccccc1` (stereo not shown) [VIII, Methyl 2-[2-Hydroxy-3-[N-[1,1-dimethyl-2-(phenylsulfonylamino)ethyl]amino]proxy]benzoate Oxalate] was tested, and the Kb ([2]; Table I, guinea pig trachea, vs isoproterenol, -log KB, read-out: PA2 Trachea (converted)) was 1.58 nM, the “Recovery Time 50%” value ([3]; Table II) was 26 ± 6 min and the “Recovery Time 80%” value ([3]; Table II) was > 60 min. The “% I, percent inhibition” value ([3]; Table II) was 74%.
`CCOC(=O)c1ccccc1OCC(O)CNCCNS(=O)(=O)c1ccc(C)cc1` (stereo not shown) [Example 5] was tested, and the Kb [1, 6] was 158 nM and the Kb [2, 7] was 25.1 nM.
`CCOC(=O)CCc1ccc(OCC(O)CNC(C)(C)CNS(=O)(=O)c2ccccc2)cc1` (stereo not shown) [No. 18 (Table IV)] was tested, and the Kb [1, 6] was 501 nM and the Kb [2, 7] was 251 nM.
